Results taken from patent publication US8354447B2, “mGLU receptors antagonists for treating disorders associated with mGLU receptors including addiction and depression” (The Scripps Research Institute, priority 2002, dated 2013).
Like-named read-outs stand apart in the source and are kept apart here.

Key:
male Wistar rats [1] = test system: male Wistar rats
From the text: (§1) Animals were trained to respond according to a modification of the discrete-trial current-threshold procedure of Kornetsky and Esposito (Fed Proc 38:2473-2476, 1979), which has been described in detail previously (Markou and Koob, 1992 Physiol Behav 51:111-119). Briefly, a trial was initiated by the delivery of a non-contingent electrical stimulus. […] The current intensity delivered was adjusted for each animal and typically ranged from 50 to 200 μA. […] After a variable inter-trial interval (7.5-12.5 sec, average of 10 sec), another trial was initiated with the delivery of a non-contingent electrical stimulus. […] Responding during the inter-trial interval delayed the onset of the next trial by 12.5 sec. Current levels were varied in alternating descending and ascending series. A set of three trials was presented for each current intensity. Current intensities were altered in 5 μA steps. In each testing session, four alternating descending-ascending series were presented. […] The overall threshold of the session was defined as the mean of the thresholds for the four individual series. Each testing session was ˜30 min in duration. The latency between the onset of the non-contingent stimulus and a positive response was recorded as the response latency. The response latency for each test session was defined as the mean response latency of all trials during which a positive response occurred. After establishment of stable ICSS reward thresholds, rats were tested in the ICSS procedure once daily except for the spontaneous nicotine withdrawal experiment when rats were tested at time-points according to the experimental design.
Systemic administration experiments. These experiments investigated whether nicotine withdrawal, as measured by elevations in ICSS thresholds, could be precipitated in nicotine-treated rats by systemic administration of an agonist at mGluII receptors (LY314582), an agonist at GABAB receptors (CGP44532), or antagonists at mGlu5 (MPEP), NMDA (MK-801) or AMPA/Kainate (NBQX) glutamate receptors. For each drug tested, rats were trained in the ICSS paradigm until stable baseline responding was achieved, defined as ≦10% variation in thresholds for 3 consecutive days and requiring approximately 14 days of daily testing. […] One group was then prepared with subcutaneous osmotic mini-pumps delivering vehicle and the second group with mini-pumps delivering 9 mg/kg/day nicotine hydrogen tartrate (3.16 mg/kg/day nicotine free base). There was a minimum seven-day interval after mini-pump implantation, during which ICSS reward thresholds continued to be measured daily, before the effect of any systemically administered drug on reward thresholds was evaluated.

male Wistar rats [2] = assay: ICSS thresholds after intra-ventral tegmental area LY314582; type: in vivo, rat
Protocol: All injections were administered bilaterally in a volume of 0.5 μl/side given over 66 sec through 17 mm injectors. The injectors were connected to calibrated polyethylene-10 tubing preloaded with drug solution and protruded 3 mm below the ends of the cannulas into the VTA. After infusion, the injectors were kept in place for an additional 60 sec to allow for drug diffusion. Injectors were then removed and replaced with 14 mm wire stylets, and the animals then placed directly into the ICSS testing apparatus. Injections were made using a Harvard microinfusion pump (Model 975).
After stable baseline ICSS responding was achieved (≦10% variation in threshold for 3 consecutive days), rats (n=15) with bilateral cannulas directed toward the VTA were allocated to two groups such that there were no differences in mean baseline reward thresholds or body weight between groups. […] Animals again were tested in the ICSS paradigm each day for seven days prior to drug treatment. […] There was a minimum 48 h interval between each injection, during which ICSS thresholds continued to be measured, to allow thresholds to return to baseline levels before further drug tests. At the conclusion of the experiment, all animals were anaesthetized and their brains removed and immediately placed on ice. The brains were cut in 50 μm sections, and placements of the injectors and the electrodes were examined (see FIG. 1 for histological verification of injection sites). Only those rats with injection tips located within the VTA were included in statistical analyses.

drug-naïve rats = details: previous studies (Harrison et al., 2002; Macey et al., 2001); cited from earlier work
male Wistar rats [3] = assay: ICSS thresholds during spontaneous nicotine withdrawal; type: in vivo, rat; details: for ICSS reward thresholds: 1 mg/kg, 30 min before the 18 h time-point
From the text: as §1
Osmotic mini-pumps were surgically removed from nicotine-treated rats (n=15) (defined as rats having been prepared with mini-pumps delivering 3.16 mg/kg/day nicotine free-base for at least seven days) or corresponding control rats (n=17; rats prepared with vehicle-containing mini-pumps). All rats were then tested in the ICSS procedure at 12, 18, 24, 36, 48 and 72 hr after the removal of osmotic mini-pumps. These time points were chosen based on the time course of threshold elevations previously observed during spontaneous nicotine withdrawal after removal of nicotine-delivering osmotic mini-pumps (Harrison et al., 2001, Neuropsychopharmacology 25:55-71; K.L.). […] Thirty min before being tested at the 18 h time-point, one group of nicotine withdrawing and one group of control rats were injected with LY341495 (1 mg/kg); the remaining rats were injected with vehicle.

Wistar rats = assay: Nicotine self-administration under a fixed ratio schedule (LY341495, LY341495 and MPEP)
[4] = CGP44532 0.065 mg/kg i.p., Nicotine-treated rats
[5] = CGP44532 0.065 mg/kg i.p., Vehicle-treated rats
[6] = CGP44532 0.125 mg/kg i.p., Nicotine-treated rats
[7] = CGP44532 0.125 mg/kg i.p., Vehicle-treated rats
[8] = CGP44532 0.25 mg/kg i.p., Nicotine-treated rats
[9] = CGP44532 0.25 mg/kg i.p., Vehicle-treated rats
[10] = CGP44532 0.5 mg/kg i.p., Nicotine-treated rats
[11] = CGP44532 0.5 mg/kg i.p., Vehicle-treated rats

## NC1(C(=O)O)CCC2C(C(=O)O)C21 (racemic) [LY314582, 2-aminobicyclo(3.1.0)hexane-2,6-dicarboxylic acid]
Male Wistar rats [1]; 7.5 mg/kg i.p., nicotine-treated rats, p<0.01
  ICSS reward thresholds: elevated reward thresholds in nicotine-treated rats compared to vehicle treatment
Male Wistar rats [1]; 2.5-7.5 mg/kg intraperitoneal, nicotine-treated and control rats
  ICSS reward thresholds: elevated ICSS reward thresholds in nicotine-treated but not control rats
Male Wistar rats [1]; LY314582 2.5-7.5 mg/kg i.p., any dose tested
  ICSS response Latencies: had no effect on response latencies in nicotine-treated or control rats
Male Wistar rats [2]; after VTA administration, nicotine-treated or control rats
  ICSS response Latencies: had no effect on response latencies
Male Wistar rats [2]; bilateral microinfusion into the VTA, 10-100 ng/side
  ICSS reward thresholds: significantly elevated reward thresholds in nicotine-treated but not control rats
Male Wistar rats [2]; intra-VTA 50 and 100 ng/side
  ICSS reward thresholds: sufficient to elevate reward thresholds in nicotine-treated rats without affecting thresholds in control rats
drug-naïve rats
  dose that elevated ICSS thresholds in drug-naïve rats: ≥ 10 mg/kg

## CP(=O)(O)C[C@@H](O)CN [CGP44532, 3-Amino-2-(S)-hydroxypropyl-methyl-phosphinic acid]
Male Wistar rats [1]; [4]
  ICSS Thresholds: 96.37 ± 3.2 percentage of baseline
  ICSS response Latencies: 106.02 ± 8.1 percentage of baseline
Male Wistar rats [1]; [5]
  ICSS Thresholds: 96.28 ± 3.1 percentage of baseline
  ICSS response Latencies: 97.31 ± 3.8 percentage of baseline
Male Wistar rats [1]; [6]
  ICSS Thresholds: 103.88 ± 7.2 percentage of baseline
  ICSS response Latencies: 98.15 ± 5.3 percentage of baseline
Male Wistar rats [1]; [7]
  ICSS Thresholds: 106.76 ± 3.2 percentage of baseline
  ICSS response Latencies: 102.34 ± 2.8 percentage of baseline
Male Wistar rats [1]; [8]
  ICSS Thresholds: 109.98 ± 5.4 percentage of baseline
  ICSS response Latencies: 99.05 ± 3.1 percentage of baseline
Male Wistar rats [1]; [9]
  ICSS Thresholds: 109.14 ± 5.1 percentage of baseline
  ICSS response Latencies: 105.03 ± 3.1 percentage of baseline
Male Wistar rats [1]; [10]
  ICSS Thresholds: 146.83 ± 14.3 percentage of baseline
  ICSS response Latencies: 98.11 ± 5.4 percentage of baseline
Male Wistar rats [1]; [11]
  ICSS Thresholds: 148.43 ± 16.6 percentage of baseline
  ICSS response Latencies: 106.13 ± 6.5 percentage of baseline
Male Wistar rats [1]; CGP44532 0.5 mg/kg, p<0.001
  ICSS reward thresholds: elevated reward thresholds in nicotine-treated and control rats
Male Wistar rats [1]; CGP44532 0.065-0.25 mg/kg, nicotine treated rats
  ICSS reward thresholds: did not precipitate reward threshold elevations in nicotine treated rats at the lowest doses tested
Male Wistar rats [1]; CGP44532 0.065-0.5 mg/kg
  ICSS response Latencies: had no effect on response latencies at any dose tested
drug-naïve rats
  dose that elevated ICSS thresholds in drug-naïve rats: ≥ 0.25 mg/kg

## N[C@](CC1c2ccccc2Oc2ccccc21)(C(=O)O)[C@H]1C[C@@H]1C(=O)O [LY341495, 2S-2-amino-2-(1S,2S-2-carboxycyclopropan-1-yl)-3-(xanth-9-yl)propionic acid]
Male Wistar rats [3]; control rats
  ICSS reward thresholds: without affecting thresholds in control rats
Male Wistar rats [3]; nicotine-withdrawing rats, p<0.001
  ICSS reward thresholds: significantly attenuated the elevations in reward thresholds in nicotine-withdrawing rats
Male Wistar rats [3]; LY341495 1 mg/kg
  ICSS response Latencies: had no effect on response latencies at any time-point after injection
Wistar rats; 0.1, 0.5, 3 and 5 mg/kg LY341495
  nicotine responding: significantly decreased nicotine responding
Wistar rats; LY341495 0.5 mg/kg
  decrease of nicotine self-administration: approximately 35%
Wistar rats; LY341495 0.5 mg/kg alone, p<0.05
  nicotine self-administration: significantly decreased nicotine self-administration
